Measurements from patent US9568449B2, “Dielectric spectroscopy methods and apparatus” (Bend Research, Inc., priority 2012, dated 2017).

Experiments:
[1] = system: first population of cells; assay: Viability of a cell population after apoptosis induction with staurosporine; format: cell-based; settings: 1 μM staurosporine added at day 14 of cell growth; compared with untreated control population; FIG. 19B
Procedure: FIG. 19A is a chart 1900 that illustrates the viability of cells (along the y-axis) in two different cell populations over a period of time (along the x-axis) in an example experiment corresponding to the method of FIG. 18. As shown, a first line 1910 indicates the viability of a first population of cells, which has apoptosis induced using addition of a staurosporine agent. In this case, a 1 μM concentration of staurosporine was used. A second line 1915 indicates the viability of a second population of cells, which is a control population that is not induced using a staurosporine agent.
At a designated time period, apoptosis is induced in the first population of cells by adding an apoptosis inducing agent to the environment.
FIG. 19B is a chart 1930 that illustrates viable cell density (VCD) (left y-axis) and cell viability percentage (right y-axis) plotted over time (x-axis) for the first and second measurements of the first and second populations of cells received at process block 1810 and 1820.

[2] = system: first population of cells; assay: Dielectric spectroscopy (normalized capacitance versus frequency) of an apoptosis-induced cell population; format: cell-based; settings: from time of staurosporine addition (day 14) to 60 hours after addition; compared with slight drift in control; FIG. 19D
Source text: At process block 1810, data representing a number of measurements of an electrical property of a first population of cells are received. The measurements can be obtained by applying a frequency-varying signal (e.g., a sine wave having a frequency that is varied across a selected frequency range, or at two or more selected frequencies) to the population of cells while measuring an electrical property such as permittivity or capacitance. A number of selected frequencies can be used, for example, frequencies between 50 kHz and 10 MHz. The measured permittivity of the population of cells will vary depending on the frequency of the applied signal used to measure permittivity. For example, the permittivity can range from a high measurement of 4×10^−9 Farads per meter (F/m) at a low frequency of 50 kHz to a low measurement of 1×10^−11 F/m at a high frequency of 10 MHz. […] The cells can be mammalian cells (e.g. from the CHO or NS0 cell lines) suspended in a nutrient solution.
At process block 1830, the first set of measurements for the first population of cells and the second set of measurements for the second population of cells are compared.
The chart 1950 of FIG. 19D illustrates the first set of measurements obtained from the first population of cells that has an apoptosis-inducing agent added at day 14 of cell growth.

CN[C@@H]1C[C@H]2O[C@@](C)([C@@H]1OC)n1c3ccccc3c3c4c(c5c6ccccc6n2c5c31)C(=O)NC4 [staurosporine]
cell viability percentage [1]: declining
viable cell density (VCD) [1]: declining
shift of normalized capacitance versus frequency curve [2]: more substantial drift to the right
